Results from patent publication US20030166561A1, “Peptide” (priority 1999, published 2003).
Where no end group is shown, it is not given here.

Columns and labels:
βTC6-F7 cells = assay: Effect of preptin on glucose-stimulated insulin secretion from cultured βTC6-F7 cells; format: cell-based, murine; details: 10 mM glucose
Experimental: Insulin and amylin are known to modulate β-cell insulin secretion via presumed autocrine mechanisms. The effect of preptin on insulin secretion was therefore tested using a β-cell secretagogue protocol βTC6-F7 cells were subcultured at passage #52 into 24-well plates at 4×10^5 cells/well. They were grown for 3d in nDMEM to 80% confluence, then washed twice with KRB-HEPES. Stock preptin was serially diluted in incubation medium containing 10 mM D(+) glucose to yield final concentrations of 150, 75, 25, 5, 1 and 0.1 nM. Cells were then washed, and 1 ml/well of incubation medium containing 10 mM and-various final preptin concentrations was added to each well. Cells were incubated at 37° C. for 2 h, then medium removed. Cells were washed thrice with PBS, then lysed with 500 μl of lysis buffer. Incubation medium was centrifuged (16,000×g, 3 min) and the supernatant separated from pelleted debris. Incubation medium and lysates were then analyzed for insulin, preptin and protein as above.

[1] = system: isolated perfused rat pancreas; assay: Insulin secretion from glucose-stimulated isolated-perfused rat pancreas (infusion of preptin or anti-preptin γ-globulin); details: 75 nM preptin, 20 mM glucose; compared with control (0-added preptin); p=0.03
Experimental: Pancreases from fasted adult male Wistar rats (300±25 g) were isolated and prepared (Grodsky and Fanska 1975). Pancreases were perfused with KHB supplemented with 4% dextran, 0.5% BSA, 3 mM arginine and 5.5 mM glucose. Perfusate was gassed with 95% 02:5% CO2 and infused by peristaltic pump (2.7 ml.min^−1 without re-circulation). Pancreases were perfused and equilibrated for 20 min prior to each 70 min perfusion experiment. 10 min into the experiment either carrier buffer (0.1% BSA in 0.9% NaCl), preptin dissolved in carrier buffer, anti-preptin Ig or non-immunised rabbit Ig (both diluted in carrier buffer) were introduced via a side-arm infusion (final concentrations in perfusate: 75 nM preptin; 35 μg.ml^−1 Ig). In addition, at 25 min, glucose was infused for 20 min (final concentration in perfusate: 20 mM). […]
Pancreases were perfused with KHB supplemented with 4% dextran, 0.5% BSA, 3 mM-arginine and 5.5 mM glucose (final concentrations). […] 10-min into the experiment either anti-preptin γ-globulin or non-immune rabbit γ-globulin were introduced via a side-arm infusion (final γ-globulin concentration in perfusate: 35 μg.ml^−1 in carrier buffer (0.1% BSA in 0.9% NaCl). In addition, at 25-min, glucose was infused for 20-min (measured final concentration in perfusate: 20 mM). Continuous 1-min fractions were collected on ice and assayed for insulin (RIA).

DVSTSQAVLPDDFPRYPVGKFFKFDTWRQSAGRL [synthetic rat preptin, 34 amino acid peptide, Asp69-Leu102 of rat proIGF-II E-peptide, chemically synthesized using Fmoc chemistry]
preptin concentration at which effect on insulin secretion reached maximal (βTC6-F7 cells): 75 nM
glucose-stimulated secretion of insulin (βTC6-F7 cells; 2 h, 37° C., compared to controls (0 added preptin)): enhanced
preptin concentration at which significant effects on insulin secretion were detected (βTC6-F7 cells; compared to controls (0 added preptin)): ≥ 0.1 nM
enhancement of second phase of insulin secretion (areas-under-curve) [1]: 30%
